According to patent publication US20260258033A1, “2,7-Naphthyridine Compounds as MASTL Inhibitors” (Pfizer Inc., priority 2022, published 2026):

Test system: breast cancer cells
Test: not given
Conditions: in breast cancer cells; Kang et al., Pharmaceuticals 2021; read-out: cellular IC50; cited from earlier work

Row | SMILES | IC50 [nM]
1 | N#CCc1ccc(Nc2nc(Nc3cc(C4CC4)[nH]n3)c3ccccc3n2)cc1 [MKI-2, 2-(4-((4-((5-cyclopropyl-1H-pyrazol-3-yl)amino)quinazolin-2-yl)amino)phenyl)acetonitrile] | 143

Target: T1, Full-length human recombinant N-term FLAG-tagged MASTL protein (Homo sapiens, UniProt Q96GX5)
T1 sequence (Q96GX5 1-879): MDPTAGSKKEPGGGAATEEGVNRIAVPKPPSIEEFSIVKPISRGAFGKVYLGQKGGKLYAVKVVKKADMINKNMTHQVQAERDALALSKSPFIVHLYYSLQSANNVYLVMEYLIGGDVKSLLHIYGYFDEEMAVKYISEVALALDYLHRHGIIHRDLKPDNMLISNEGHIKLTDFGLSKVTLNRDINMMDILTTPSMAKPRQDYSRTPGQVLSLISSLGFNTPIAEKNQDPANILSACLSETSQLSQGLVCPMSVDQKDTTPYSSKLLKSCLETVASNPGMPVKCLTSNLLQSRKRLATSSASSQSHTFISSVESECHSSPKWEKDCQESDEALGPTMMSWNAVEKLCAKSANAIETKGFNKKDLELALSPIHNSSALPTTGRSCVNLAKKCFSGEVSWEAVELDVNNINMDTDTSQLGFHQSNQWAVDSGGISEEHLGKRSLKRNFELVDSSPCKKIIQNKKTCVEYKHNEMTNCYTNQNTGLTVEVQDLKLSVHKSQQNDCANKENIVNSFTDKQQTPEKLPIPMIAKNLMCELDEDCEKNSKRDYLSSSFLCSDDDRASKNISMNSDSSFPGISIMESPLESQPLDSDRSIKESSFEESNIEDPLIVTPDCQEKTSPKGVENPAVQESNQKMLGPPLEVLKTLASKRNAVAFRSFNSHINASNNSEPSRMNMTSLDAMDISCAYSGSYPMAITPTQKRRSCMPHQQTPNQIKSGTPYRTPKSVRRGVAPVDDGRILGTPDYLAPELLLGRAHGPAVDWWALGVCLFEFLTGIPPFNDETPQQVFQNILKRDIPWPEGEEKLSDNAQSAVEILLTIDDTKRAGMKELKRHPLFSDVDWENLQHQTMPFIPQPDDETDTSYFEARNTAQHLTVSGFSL
Test: MASTL enzyme kinase assay (CHEF PhosphoSens)
Conditions: MASTL Ki (nM), 3 nM MASTL, 1 mM ATP, room temperature; geometric mean of at least 3 independent determinations (* denotes n = 2)
Text: MASTL enzyme kinase assay was used to measure the inhibition constant (Ki) of Examples of the present invention.
Full-length human recombinant N-term FLAG-tagged MASTL protein (construct LJIC-3077G2), activated by CDK1, was produced at Pfizer Inc by expression in baculovirus-infected insect cells. All reagents were purchased from Sigma-Aldrich, Inc (St. Louis, MO), unless specified otherwise. Tween™ 20 detergent (10% Solution) was purchased from EMD Millipore Corp (Billerica, MA). The CHEF phosphoacceptor peptide substrate (AQT0693) was purchased from AssayQuant technologies, Inc (Marlboro, MA). […] The reactions contained 1 mM ATP and were initiated by the addition of enzyme. Initial reaction velocities were determined by following the fluorescence (λex=360 nm, λem=485 nm) of appropriate CHEF peptide substrate for 120 minutes in an end-point mode in a SpectraMax Paradigm Microplate Reader (Molecular Devices, LLC. San Jose, California). The extents of reactions were estimated to be <20%.

Row | SMILES | Ki [nM]
2 | CCC(N)c1cc(Nc2cc3cc(-c4cnnn4C)nc(N)c3cn2)ncc1C (single isomer, unassigned) [Example 14, N^6-(4-(1-aminopropyl)-5-methylpyridin-2-yl)-3-(1-methyl-1H-1,2,3-triazol-5-yl)-2,7-naphthyridine-1,6-diamine] | 0.098
3 | CCC1(NC)CCc2cnc(Nc3cc4cc(-c5cnnn5C)nc(N)c4cn3)cc21 (single isomer, unassigned) [Example 6, N^6-(5-ethyl-5-(methylamino)-6,7-dihydro-5H-cyclopenta[c]pyridin-3-yl)-3-(1-methyl-1H-1,2,3-triazol-5-yl)-2,7-naphthyridine-1,6-diamine] | 0.076
4 | CCC1(NC)CCc2cnc(Nc3cc4cc(-c5cnnn5C)nc(N)c4cn3)cc21 (single isomer, unassigned) [Example 5, N^6-(5-ethyl-5-(methylamino)-6,7-dihydro-5H-cyclopenta[c]pyridin-3-yl)-3-(1-methyl-1H-1,2,3-triazol-5-yl)-2,7-naphthyridine-1,6-diamine] | 0.033
5 | Cn1nncc1-c1cc2cc(Nc3cc(C(C)(N)CC(F)(F)F)ccn3)ncc2c(N)n1 (single isomer, unassigned) [Example 26, N^6-(4-(2-amino-4,4,4-trifluorobutan-2-yl)pyridin-2-yl)-3-(1-methyl-1H-1,2,3-triazol-5-yl)-2,7-naphthyridine-1,6-diamine] | 0.075
6 | CCC1(NC)CCc2c1ccnc2Nc1cc2cc(-c3cnnn3C)nc(N)c2cn1 (single isomer, unassigned) [Example 4, N^6-(5-ethyl-5-(methylamino)-6,7-dihydro-5H-cyclopenta[c]pyridin-1-yl)-3-(1-methyl-1H-1,2,3-triazol-5-yl)-2,7-naphthyridine-1,6-diamine] | 0.47
7 | CNC1(c2ccnc(Nc3cc4cc(-c5cnnn5C)nc(N)c4cn3)c2)CCCC1 [Example 27, 3-(1-methyl-1H-1,2,3-triazol-5-y1)-N^6-(4-(1-(methylamino)cyclopentyl)pyridin-2-yl)-2,7-naphthyridine-1,6-diamine] | 0.073
8 | CNC(C)(c1ccnc(Nc2cc3cc(-c4cnnn4C)nc(N)c3cn2)c1)C1CC1 (single isomer, unassigned) [Example 19, N^6-(4-(1-cyclopropyl-1-(methylamino)ethyl)pyridin-2-yl)-3-(1-methyl-1H-1,2,3-triazol-5-yl)-2,7-naphthyridine-1,6-diamine] | 0.047
9 | Cn1nncc1-c1cc2cc(Nc3cc(C(C)(N)CC(F)(F)F)ccn3)ncc2c(N)n1 (single isomer, unassigned) [Example 25, N^6-(4-(2-amino-4,4,4-trifluorobutan-2-yl)pyridin-2-yl)-3-(1-methyl-1H-1,2,3-triazol-5-yl)-2,7-naphthyridine-1,6-diamine] | 0.078
10 | Cn1nncc1-c1cc2cc(Nc3cc(C(N)CC(F)(F)F)ccn3)ncc2c(N)n1 (single isomer, unassigned) [Example 18, N^6-(4-(1-amino-3,3,3-trifluoropropyl)pyridin-2-yl)-3-(1-methyl-1H-1,2,3-triazol-5-yl)-2,7-naphthyridine-1,6-diamine] | 0.088

Continued, values first:

Row | Ki [nM] | SMILES
11 | 0.059 | CCn1nncc1-c1cc2cc(Nc3cc(C(C)(C)NC)ccn3)ncc2c(N)n1 [Example 37, 3-(1-ethyl-1H-1,2,3-triazol-5-yl)-N^6-(4-(2-(methylamino)propan-2-yl)pyridin-2-yl)-2,7-naphthyridine-1,6-diamine]
12 | 0.03 | CNC(C)(c1ccnc(Nc2cc3cc(-c4cnnn4C)nc(N)c3cn2)c1)C(C)C (single isomer, unassigned) [Example 31, 3-(1-methyl-1H-1,2,3-triazol-5-yl)-N^6-(4-(3-methyl-2-(methylamino)butan-2-yl)pyridin-2-yl)-2,7-naphthyridine-1,6-diamine]
13 | 0.093 | Cn1nncc1-c1cc2cc(Nc3cc(C(C)(N)C(F)(F)F)ccn3)ncc2c(N)n1 (single isomer, unassigned) [Example 28, N^6-(4-(2-amino-1,1,1-trifluoropropan-2-yl)pyridin-2-yl)-3-(1-methyl-1H-1,2,3-triazol-5-yl)-2,7-naphthyridine-1,6-diamine]
14 | 0.32 | CNC(c1ccnc(Nc2cc3cc(-c4cnnn4C)nc(N)c3cn2)c1)C(C)(C)C (single isomer, unassigned) [Example 35, N^6-(4-(2,2-dimethyl-1-(methylamino)propyl)pyridin-2-yl)-3-(1-methyl-1H-1,2,3-triazol-5-yl)-2,7-naphthyridine-1,6-diamine]
15 | 0.17 | Cn1nncc1-c1cc2cc(Nc3cc(C(C)(N)C(F)(F)F)ccn3)ncc2c(N)n1 (single isomer, unassigned) [Example 29, N^6-(4-(2-amino-1,1,1-trifluoropropan-2-yl)pyridin-2-yl)-3-(1-methyl-1H-1,2,3-triazol-5-yl)-2,7-naphthyridine-1,6-diamine]
